Values of other authors, collected in PMC5866837, “Towards a generic physiologically based kinetic model to predict in vivo uterotrophic responses in rats by reverse dosimetry of in vitro estrogenicity data” (Archives of Toxicology, 2017).

System: Caco-2
Settings: cited from earlier work

CC(C)(c1ccc(O)cc1)c1ccc(O)cc1 [BPA, bisphenol A]
Papp, Caco-2 (PBK model code, ref Yoshkawa et al. 2002): 20 x1E-6 cm/sec
P app, Caco-2 (ref Yoshikawa et al. [2002]): 20 ×10⁻⁶ cm/s
